# From ChEMBL document CHEMBL1201862, “PubChem BioAssay data set” (2004)
# Activity calls are given as the source filed them.
# Key:
# [1] = biological target: T1, Streptokinase A (Streptococcus pyogenes serotype M1, UniProt P10520); test: viability-normalized secreted streptokinase activity reduction – plasminogen activation absorbance, OD405, dose response (AID 1914); type: functional, Streptococcus pyogenes M1 GAS;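 further: secreted streptokinase activity via plasminogen activation per viability signal from cell pellet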
# T1 sequence (P10520 whole entry): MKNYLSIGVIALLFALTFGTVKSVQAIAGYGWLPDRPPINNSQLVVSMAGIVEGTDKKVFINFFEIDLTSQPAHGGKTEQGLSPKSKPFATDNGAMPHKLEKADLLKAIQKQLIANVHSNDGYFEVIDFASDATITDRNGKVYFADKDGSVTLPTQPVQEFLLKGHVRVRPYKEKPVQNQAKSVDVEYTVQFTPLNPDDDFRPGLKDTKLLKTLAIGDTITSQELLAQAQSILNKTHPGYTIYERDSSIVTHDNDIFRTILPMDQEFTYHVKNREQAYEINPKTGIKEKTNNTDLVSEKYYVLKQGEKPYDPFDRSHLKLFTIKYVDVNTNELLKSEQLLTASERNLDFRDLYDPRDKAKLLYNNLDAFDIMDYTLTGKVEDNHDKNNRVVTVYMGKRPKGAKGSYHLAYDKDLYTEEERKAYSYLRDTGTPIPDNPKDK
# [2] = biological target: Disintegrin and metalloproteinase domain-containing protein 17 (Homo sapiens, UniProt P78536); test: inhibition of ADAM17 substrate cleavage – biochemical, quenched FRET substrate, counter-screen for ADAM10 exosite inhibitor project, dose response (AID 743253)
# [3] = tested on: Streptococcus; test: Luminescence Microorganism-Based Dose Response Follow up to Identify Compounds Cytotoxic to Streptococcus. [Related pubchem assays: 1677 (Project Summary), 1915, 1914, 1902 (Retest at Dose), 1900 (Counter Screen), 1662 (Primary HTS)]; type: functional, organism-based
# [4] = tested on: Streptococcus; test: GAS UMAA2166 growth inhibition – luminescence, BacTiterGlo, counter-screen for streptokinase expression inhibitor project, dose response (AID 1915); type: functional, organism-based;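 further: potency for reduction of bacterial viability or growth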
# [5] = tested on: Streptococcus sp. 'group A'; test: Streptococcus pyogenes SK(-)GAS viability under kanamycin – luminescence, BacTiterGlo, confirmation, counter-screen for streptokinase expression inhibitor project, dose response (AID 1900); type: functional, organism-based
# [6] = biological target: Lysosomal acid glucosylceramidase (Homo sapiens, UniProt P04062); test: Dose response cell-based high throughput screening assay to identify enhancers of beta-glucosidase activity. [Related pubchem assays: 784 ]; type: functional
# [7] = biological target: T2, Leucine aminopeptidase (Plasmodium falciparum 3D7, UniProt Q8IL11); test: P. falciparum M17LAP inhibitors, primary screen, biochemical, fluorogenic H-Leu-NHMec substrate, 1536-well (AID 1619); type: functional
# T2 sequence (Q8IL11 whole entry): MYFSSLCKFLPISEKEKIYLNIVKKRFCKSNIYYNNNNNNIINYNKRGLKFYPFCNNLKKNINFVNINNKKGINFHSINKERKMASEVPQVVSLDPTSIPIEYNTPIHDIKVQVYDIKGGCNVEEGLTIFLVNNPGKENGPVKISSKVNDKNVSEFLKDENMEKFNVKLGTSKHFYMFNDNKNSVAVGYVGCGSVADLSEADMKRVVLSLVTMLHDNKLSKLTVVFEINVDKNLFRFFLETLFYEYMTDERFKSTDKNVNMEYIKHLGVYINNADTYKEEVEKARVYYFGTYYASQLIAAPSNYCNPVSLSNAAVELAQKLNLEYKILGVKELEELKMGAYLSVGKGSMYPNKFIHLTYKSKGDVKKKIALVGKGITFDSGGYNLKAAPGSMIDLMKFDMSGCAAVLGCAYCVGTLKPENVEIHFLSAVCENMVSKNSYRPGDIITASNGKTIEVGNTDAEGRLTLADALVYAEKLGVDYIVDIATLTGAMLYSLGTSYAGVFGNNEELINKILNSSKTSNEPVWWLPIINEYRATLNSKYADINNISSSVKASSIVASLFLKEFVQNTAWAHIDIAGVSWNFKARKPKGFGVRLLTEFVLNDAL
# [8] = Late stage assay provider results from the probe development effort to identify selective inhibitors of heat shock protein 90 (HSP90): Absorbance-based cell proliferation assay in SKBR3 cells.; type: functional; settings: SK-BR-3
# [9] = biological target: Luciferin 4-monooxygenase (Photinus pyralis, UniProt P08659); test: Counter Screen for Luciferase-based Assay Positives. [Related pubchem assays: 620, 618, 411 ]
# [10] = viability loss in HEK293 kidney cells – cell-based, cherry-picks, set 5, cytotoxicity control, dose response (AID 1053117); type: functional
# [11] = tested on: HT-1080; test: HT1080 cell viability loss – fluorescence readout (AID 620); type: functional, cell-based; settings: Homo sapiens
# [12] = Late stage assay provider results from the probe development effort to identify selective inhibitors of heat shock protein 90 (HSP90): Absorbance-based cell proliferation assay in MCF7 cells.; type: functional
# [13] = blockers of FN fibrillogenesis by fibroblasts – AH1F cells, Alexa488-FN fluorescence, cherry-picks, dose response (AID 1035475); type: functional, cell-based
# [14] = biological target: Cytochrome P450 2C9 (Homo sapiens, UniProt P11712); settings: Potency
# [15] = biological target: Heat shock cognate 71 kDa protein (Homo sapiens, UniProt P11142); test: In Vitro Hsc70 Dose Response Fluorescence Polarization Assay. [Related pubchem assays: 1072 ]
# [16] = biological target: T3, Dual specificity protein phosphatase 6 (Rattus norvegicus, UniProt Q64346); type: functional
# T3 sequence (Q64346 whole entry): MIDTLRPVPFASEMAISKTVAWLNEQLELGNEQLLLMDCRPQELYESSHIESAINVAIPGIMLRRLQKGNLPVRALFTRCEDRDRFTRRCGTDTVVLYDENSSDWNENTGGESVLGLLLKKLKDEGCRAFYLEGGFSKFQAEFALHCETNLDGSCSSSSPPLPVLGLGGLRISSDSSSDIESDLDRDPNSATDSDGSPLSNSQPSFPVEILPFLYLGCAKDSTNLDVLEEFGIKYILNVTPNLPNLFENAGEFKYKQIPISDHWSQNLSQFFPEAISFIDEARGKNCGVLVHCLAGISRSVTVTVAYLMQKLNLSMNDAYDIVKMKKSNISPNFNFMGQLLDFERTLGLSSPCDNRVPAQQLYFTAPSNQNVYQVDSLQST
# [17] = biological target: T4, Tyrosine-protein phosphatase non-receptor type 7 (Homo sapiens, UniProt P35236); type: functional
# T4 sequence (P35236 whole entry): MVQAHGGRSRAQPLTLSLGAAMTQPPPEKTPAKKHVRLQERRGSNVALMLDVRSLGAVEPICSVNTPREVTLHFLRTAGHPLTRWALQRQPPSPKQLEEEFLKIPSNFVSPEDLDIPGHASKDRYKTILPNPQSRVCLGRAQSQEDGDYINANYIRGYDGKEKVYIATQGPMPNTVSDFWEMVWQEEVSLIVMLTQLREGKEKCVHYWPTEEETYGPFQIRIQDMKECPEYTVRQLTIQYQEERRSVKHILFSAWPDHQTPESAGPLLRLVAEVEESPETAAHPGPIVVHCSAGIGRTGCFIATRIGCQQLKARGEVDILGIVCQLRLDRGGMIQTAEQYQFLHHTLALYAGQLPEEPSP
# [18] = biological target: T3, Dual specificity protein phosphatase 6
# [19] = biological target: Heat shock 70 kDa protein 1A (Homo sapiens, UniProt P0DMV8); test: inhibition of Hsp70 binding activity – biochemical, fluorescence polarization, SAR follow-up (AID 1072)
# [20] = biological target: Glyceraldehyde-3-phosphate dehydrogenase (Homo sapiens, UniProt P04406)
# [21] = biological target: T5, Microphthalmia-associated transcription factor (Homo sapiens, UniProt O75030); test: reducers of TRPM1 reporter luminescence, concentration series – cell-based, SK-MEL-5, cherry-picked, set 3, MITF inhibitor project, dose response (AID 493073); type: functional;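 further: SK-MEL-5 melanoma cells with luciferase driven by the MITF target TRPM1 promoter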
# T5 sequence (O75030 whole entry): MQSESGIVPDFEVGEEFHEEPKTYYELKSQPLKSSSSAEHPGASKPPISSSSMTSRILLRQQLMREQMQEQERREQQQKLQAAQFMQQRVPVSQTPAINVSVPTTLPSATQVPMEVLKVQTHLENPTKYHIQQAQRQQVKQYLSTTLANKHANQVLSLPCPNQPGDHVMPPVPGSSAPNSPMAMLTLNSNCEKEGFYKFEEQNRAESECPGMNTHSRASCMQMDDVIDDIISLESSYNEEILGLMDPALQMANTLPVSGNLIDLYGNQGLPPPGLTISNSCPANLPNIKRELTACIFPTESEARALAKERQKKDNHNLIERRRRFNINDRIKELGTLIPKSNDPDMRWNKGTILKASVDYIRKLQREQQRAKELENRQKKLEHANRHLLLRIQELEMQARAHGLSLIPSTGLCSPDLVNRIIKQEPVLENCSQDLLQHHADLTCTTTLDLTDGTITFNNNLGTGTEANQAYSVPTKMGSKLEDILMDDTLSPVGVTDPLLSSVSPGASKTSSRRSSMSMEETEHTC
# [22] = tested on: HEK293; test: EBV LMP1 TES2 canonical NF-kB signalling blockers – cell-based, HEK293, luciferase, cherry-pick, dose response (AID 588343); type: functional; settings: Homo sapiens
# [23] = Vero E6 cell cytotoxicity, dose response, cytotoxicity control for non-replicating M. tuberculosis project, secondary assay (AID 492998); type: functional, VeroE6; settings: Vero C1008
# [24] = Luminescence Cell-Based Dose Response HTS to Identify Inhibitors of 5'UTR Stem-Loop Driven Prion Protein mRNA Translation in H4 Neuroglioblastoma Cells. [Related pubchem assays: 1827 (Project Summary), 1813 (Primary HTS)]; type: functional
# [25] = cells; type: functional, cell-based
# [26] = tested on: INS1; test: INS-1E survival protection against cytokine death – cell-based, luminescence, retest, dose response (AID 449756); type: functional; settings: Rattus norvegicus;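 further: cell death triggered by IL-1 beta plus TNF-alpha plus IFN-gamma mixture; protective hits raise ATP signal compared with cytokine alone wells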
# [27] = THP-1 cell cytotoxicity, dose response, cytotoxicity control for non-replicating M. tuberculosis project (AID 489025); type: functional
# [28] = HepG2 cell cytotoxicity, dose response, cytotoxicity control for non-replicating M. tuberculosis project (AID 489018); type: functional; settings: Mycobacterium tuberculosis
# [29] = cells; type: functional, cell-based; remark: listed apart in the source
# [30] = HEK-293T viability loss after treatment – luminescence, T-cell screen hits, cytotoxicity control for TCR NF-kB inhibitor project, dose response (AID 489026); type: functional, cell-based;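 further: cells exposed to compound about 14 hours before the viability readout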
# [31] = Luminescence-based counterscreen assay for KLF5 inhibitors: dose response cell-based high throughput screening assay to identify cytotoxic compounds using the IEC-6 intestinal epithelial cell line. [Related pubchem assays: 1700 (Primary screen.), 1834 (Confirmation screen.), 1858 (Summary AID.), 1905 (Counterscreen.)]; type: functional
# [32] = biological target: T6, Estrogen receptor (Homo sapiens, UniProt P03372); test: ERα coactivator recruitment enhancers – biochemical, TR-FRET, ERα LBD, dose response (AID 737)
# T6 sequence (P03372 whole entry): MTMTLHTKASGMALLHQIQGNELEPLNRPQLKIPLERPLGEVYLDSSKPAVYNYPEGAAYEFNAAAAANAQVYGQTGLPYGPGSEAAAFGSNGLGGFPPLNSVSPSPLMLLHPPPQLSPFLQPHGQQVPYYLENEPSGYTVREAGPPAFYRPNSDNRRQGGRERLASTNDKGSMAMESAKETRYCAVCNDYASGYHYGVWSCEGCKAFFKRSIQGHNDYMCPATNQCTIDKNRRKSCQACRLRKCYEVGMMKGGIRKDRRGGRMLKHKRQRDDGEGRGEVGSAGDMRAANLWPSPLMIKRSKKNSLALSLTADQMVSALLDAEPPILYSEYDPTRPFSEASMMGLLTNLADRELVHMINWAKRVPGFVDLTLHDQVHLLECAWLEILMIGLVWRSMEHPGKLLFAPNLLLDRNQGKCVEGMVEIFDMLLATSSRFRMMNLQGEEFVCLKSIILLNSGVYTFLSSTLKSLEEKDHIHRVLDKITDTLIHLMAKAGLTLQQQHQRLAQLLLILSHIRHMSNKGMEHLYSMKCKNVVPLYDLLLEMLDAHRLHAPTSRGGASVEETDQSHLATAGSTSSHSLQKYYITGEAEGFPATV
# [33] = biological target: Mothers against decapentaplegic homolog 3 (Homo sapiens, UniProt P84022); test: blockers of Smad3 complex formation in lysate – cell lysate, secondary confirmation, chemiluminescent ELISA, HEK293 lysate, dose response (AID 1058); type: functional
# Mothers against decapentaplegic homolog 3, sequence (P84022 whole entry): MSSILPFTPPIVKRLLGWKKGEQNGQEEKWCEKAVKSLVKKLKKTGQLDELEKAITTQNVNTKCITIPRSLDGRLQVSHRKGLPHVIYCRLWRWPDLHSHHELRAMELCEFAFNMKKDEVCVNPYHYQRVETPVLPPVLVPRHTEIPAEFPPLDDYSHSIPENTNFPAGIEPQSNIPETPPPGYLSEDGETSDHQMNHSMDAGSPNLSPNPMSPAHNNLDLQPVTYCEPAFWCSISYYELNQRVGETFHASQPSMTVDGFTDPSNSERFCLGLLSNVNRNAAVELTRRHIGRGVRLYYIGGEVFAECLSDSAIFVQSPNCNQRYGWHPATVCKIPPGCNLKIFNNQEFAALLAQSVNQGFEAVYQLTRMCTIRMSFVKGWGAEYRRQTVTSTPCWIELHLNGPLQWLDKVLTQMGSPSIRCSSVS
# Heat shock cognate 71 kDa protein, sequence (P11142 whole entry): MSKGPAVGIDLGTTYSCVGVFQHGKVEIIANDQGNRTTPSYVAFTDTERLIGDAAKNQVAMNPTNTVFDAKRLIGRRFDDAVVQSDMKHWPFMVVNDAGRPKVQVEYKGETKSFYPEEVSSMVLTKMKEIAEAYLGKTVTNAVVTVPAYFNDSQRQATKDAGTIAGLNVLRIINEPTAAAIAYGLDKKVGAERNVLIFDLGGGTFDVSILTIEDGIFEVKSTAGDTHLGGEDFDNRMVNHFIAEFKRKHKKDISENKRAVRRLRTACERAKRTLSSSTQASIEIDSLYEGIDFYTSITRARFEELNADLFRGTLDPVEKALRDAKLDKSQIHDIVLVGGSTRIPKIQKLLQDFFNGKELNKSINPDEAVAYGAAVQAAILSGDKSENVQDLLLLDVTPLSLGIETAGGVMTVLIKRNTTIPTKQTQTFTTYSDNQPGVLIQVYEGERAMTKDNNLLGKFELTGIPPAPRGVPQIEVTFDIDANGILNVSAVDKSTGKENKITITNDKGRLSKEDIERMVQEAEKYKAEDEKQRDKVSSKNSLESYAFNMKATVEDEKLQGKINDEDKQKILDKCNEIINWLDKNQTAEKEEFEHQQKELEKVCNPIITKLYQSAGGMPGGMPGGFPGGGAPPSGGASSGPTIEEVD
# Cytochrome P450 2C9, sequence (P11712 whole entry): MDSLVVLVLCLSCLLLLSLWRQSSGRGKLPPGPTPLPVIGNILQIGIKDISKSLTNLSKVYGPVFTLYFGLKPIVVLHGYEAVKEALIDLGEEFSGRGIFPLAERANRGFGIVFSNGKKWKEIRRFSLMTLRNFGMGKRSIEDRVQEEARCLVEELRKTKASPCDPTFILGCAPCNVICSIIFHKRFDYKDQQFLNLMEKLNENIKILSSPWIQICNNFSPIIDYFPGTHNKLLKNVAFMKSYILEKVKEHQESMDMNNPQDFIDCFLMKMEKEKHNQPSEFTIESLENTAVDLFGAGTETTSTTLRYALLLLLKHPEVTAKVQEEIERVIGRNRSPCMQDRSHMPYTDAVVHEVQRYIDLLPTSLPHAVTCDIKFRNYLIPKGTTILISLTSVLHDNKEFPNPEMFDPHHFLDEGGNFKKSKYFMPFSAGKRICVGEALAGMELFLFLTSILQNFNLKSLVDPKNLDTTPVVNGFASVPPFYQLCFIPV
# Luciferin 4-monooxygenase, sequence (P08659 whole entry): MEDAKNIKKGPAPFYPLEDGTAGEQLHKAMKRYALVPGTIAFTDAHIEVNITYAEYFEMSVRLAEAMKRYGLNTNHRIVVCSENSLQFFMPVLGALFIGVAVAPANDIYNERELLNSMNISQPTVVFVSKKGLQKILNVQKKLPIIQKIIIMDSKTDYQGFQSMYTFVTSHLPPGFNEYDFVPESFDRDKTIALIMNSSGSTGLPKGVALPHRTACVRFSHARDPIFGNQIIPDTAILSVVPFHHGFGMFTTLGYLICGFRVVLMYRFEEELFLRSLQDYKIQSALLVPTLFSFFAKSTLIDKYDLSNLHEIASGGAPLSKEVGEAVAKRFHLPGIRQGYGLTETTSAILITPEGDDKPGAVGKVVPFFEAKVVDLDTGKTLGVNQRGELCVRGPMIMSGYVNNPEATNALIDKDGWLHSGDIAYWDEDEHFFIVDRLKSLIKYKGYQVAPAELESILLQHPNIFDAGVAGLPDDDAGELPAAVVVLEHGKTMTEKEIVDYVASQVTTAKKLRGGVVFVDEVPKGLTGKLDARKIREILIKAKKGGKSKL
# Heat shock 70 kDa protein 1A, sequence (P0DMV8 whole entry): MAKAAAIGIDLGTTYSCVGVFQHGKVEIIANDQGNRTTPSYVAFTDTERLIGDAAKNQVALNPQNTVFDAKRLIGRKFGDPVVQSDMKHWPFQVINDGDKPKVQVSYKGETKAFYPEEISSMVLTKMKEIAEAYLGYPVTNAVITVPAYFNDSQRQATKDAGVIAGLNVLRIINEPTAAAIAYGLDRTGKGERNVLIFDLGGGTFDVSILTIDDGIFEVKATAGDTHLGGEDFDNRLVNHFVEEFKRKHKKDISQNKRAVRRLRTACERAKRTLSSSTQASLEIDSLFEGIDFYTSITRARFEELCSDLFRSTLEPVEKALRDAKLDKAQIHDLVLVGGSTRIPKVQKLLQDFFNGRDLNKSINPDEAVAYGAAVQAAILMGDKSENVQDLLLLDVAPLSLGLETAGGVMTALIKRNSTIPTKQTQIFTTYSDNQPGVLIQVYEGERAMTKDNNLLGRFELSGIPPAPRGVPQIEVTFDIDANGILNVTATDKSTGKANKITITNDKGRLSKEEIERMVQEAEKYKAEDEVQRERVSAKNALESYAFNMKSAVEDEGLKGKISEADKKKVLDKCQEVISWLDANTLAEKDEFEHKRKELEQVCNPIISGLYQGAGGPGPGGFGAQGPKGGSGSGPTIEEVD
# Lysosomal acid glucosylceramidase, sequence (P04062 whole entry): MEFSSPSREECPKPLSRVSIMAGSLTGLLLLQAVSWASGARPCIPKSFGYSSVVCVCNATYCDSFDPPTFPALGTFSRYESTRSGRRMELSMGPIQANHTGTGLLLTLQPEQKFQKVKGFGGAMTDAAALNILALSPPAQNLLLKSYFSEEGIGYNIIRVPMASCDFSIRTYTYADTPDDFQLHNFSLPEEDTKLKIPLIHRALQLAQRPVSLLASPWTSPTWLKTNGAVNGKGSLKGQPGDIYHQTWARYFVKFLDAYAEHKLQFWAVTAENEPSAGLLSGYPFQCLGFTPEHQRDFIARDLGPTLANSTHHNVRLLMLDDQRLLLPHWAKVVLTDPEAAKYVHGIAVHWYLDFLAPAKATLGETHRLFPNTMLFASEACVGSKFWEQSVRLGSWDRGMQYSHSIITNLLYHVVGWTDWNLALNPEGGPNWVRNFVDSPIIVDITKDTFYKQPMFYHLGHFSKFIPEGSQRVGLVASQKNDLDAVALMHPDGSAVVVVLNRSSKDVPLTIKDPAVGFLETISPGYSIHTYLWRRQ
# Disintegrin and metalloproteinase domain-containing protein 17, sequence (P78536 whole entry, the tested form may be a part): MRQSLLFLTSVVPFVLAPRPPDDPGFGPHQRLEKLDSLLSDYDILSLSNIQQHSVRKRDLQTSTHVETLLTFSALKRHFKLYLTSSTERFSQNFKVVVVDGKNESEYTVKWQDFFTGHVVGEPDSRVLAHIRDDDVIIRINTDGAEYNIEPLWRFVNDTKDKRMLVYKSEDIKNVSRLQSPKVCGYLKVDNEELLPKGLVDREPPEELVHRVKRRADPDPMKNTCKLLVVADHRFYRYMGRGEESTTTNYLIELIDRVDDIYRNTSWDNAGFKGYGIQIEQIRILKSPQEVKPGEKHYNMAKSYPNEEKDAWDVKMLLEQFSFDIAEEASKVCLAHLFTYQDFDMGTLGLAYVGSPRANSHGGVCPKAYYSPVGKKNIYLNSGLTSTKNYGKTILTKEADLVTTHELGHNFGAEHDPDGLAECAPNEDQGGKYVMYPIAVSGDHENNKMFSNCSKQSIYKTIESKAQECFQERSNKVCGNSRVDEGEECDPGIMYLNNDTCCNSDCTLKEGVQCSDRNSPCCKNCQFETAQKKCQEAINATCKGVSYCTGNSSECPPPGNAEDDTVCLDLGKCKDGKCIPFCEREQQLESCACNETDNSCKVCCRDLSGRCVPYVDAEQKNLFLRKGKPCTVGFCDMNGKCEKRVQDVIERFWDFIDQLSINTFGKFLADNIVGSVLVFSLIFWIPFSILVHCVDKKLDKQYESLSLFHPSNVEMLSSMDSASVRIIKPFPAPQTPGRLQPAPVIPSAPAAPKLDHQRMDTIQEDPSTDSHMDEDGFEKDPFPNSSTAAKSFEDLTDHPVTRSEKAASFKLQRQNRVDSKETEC
# Glyceraldehyde-3-phosphate dehydrogenase, sequence (P04406 whole entry): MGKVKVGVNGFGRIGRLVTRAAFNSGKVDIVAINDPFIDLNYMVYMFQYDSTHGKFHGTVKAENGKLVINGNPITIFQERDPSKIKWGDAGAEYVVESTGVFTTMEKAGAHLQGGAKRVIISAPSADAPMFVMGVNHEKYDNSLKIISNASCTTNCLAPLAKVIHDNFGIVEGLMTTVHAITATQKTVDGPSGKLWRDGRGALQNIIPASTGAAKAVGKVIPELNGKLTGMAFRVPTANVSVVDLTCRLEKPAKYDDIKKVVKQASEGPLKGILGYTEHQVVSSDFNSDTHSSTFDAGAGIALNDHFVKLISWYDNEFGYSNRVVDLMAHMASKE
smiles,measurement,setting,value
Cc1cccc(C)c1OCC(O)Cn1c2ccccc2c2ccccc21 (stereo not drawn),EC50,[1],3.98 µM (active)
same,IC50,[2],> 69.5 µM (inactive)
same,EC50,[3],9.21 µM (active)
same,EC50,[4],7.9 µM (active)
same,EC50,[5],6.75 µM (active)
O=C(CN1C(=O)c2ccccc2S1(=O)=O)NCCSC1CCCCC1,EC50,[6],> 10 µM (not active)
same,IC50,[7],9.32 µM (active)
CC(C)CNC(=O)c1coc(=O)c(Br)c1,IC50,[8],22 µM (inactive)
same,EC50,[9],1.83 µM (active)
same,AC50,[10],> 52 µM (inactive)
same,EC50,[11],20.4 µM (active)
same,IC50,[12],7.5 µM (active)
same,AC50,[13],23.9 µM (active)
CCOC(=O)OCC1OC(c2ccccc2)C=CC1Oc1ccc(F)cc1C (stereo not drawn),AC50,[14],3.16 µM (inconclusive)
CCCCOC(=O)c1ccc2c(c1)C1C=CCC1C(C(=O)O)N2 (stereo not drawn),IC50,[15],> 100 µM (not active)
same,IC50,[16],4.02 µM (active)
same,IC50,[17],10.4 µM (active)
same,IC50,[18],41.8 µM (active)
same,IC50,[19],63.3 µM (active)
same,IC50,[20],76.6 µM (active)
COc1ccc(N/N=C/c2c(C(=O)O)ccc3ccccc23)cc1,AC50,[21],5.11 µM (active)
same,AC50,[22],4.56 µM (active)
same,CC50,[23],2 µM (active)
same,EC50,[24],9.27 µM (active)
same,EC50,[25],9.66 µM (active)
same,AC50,[26],0.786 µM (active)
same,CC50,[27],0.364 µM (active)
same,CC50,[28],4.9 µM (active)
same,EC50,[29],> 350 µM (not active)
same,IC50,[30],> 80 µM (inactive)
same,IC50,[31],37 µM (not active)
C[C@]12CC[C@@H]3c4ccc(O)cc4C(=O)C[C@H]3[C@@H]1CC[C@@H]2O,EC50,[32],12.5 µM (active)
O=C(O)CCc1ccc(O)c(O)c1 [DIHYDROCAFFEIC ACID],IC50,[33],> 50 µM (not active)
